In patent US4049665A, “Unsymmetrical disulfides as antimicrobial agents” (Colgate-Palmolive Company, priority 1975, dated 1977):
In brackets after ≈: the same amount, converted by molar mass. Where two headings read alike, the source gives them in different places.

Experiments:
P. ovale = assay: two-fold serial dilution test, minimum inhibitory concentration (Table I); assay type: cell-based; conditions: Pityrosporum ovale, P. ovale (Yeast), 1% solution in 95% ethyl alcohol
Excerpt: (§1) *Data indicates minimum inhibitory concentration in parts per million
(§2) tested by the two-fold serial dilution text method utilizing 1% solution
(§3) of the test material in 95% ethyl alcohol.

E. coli = assay: as above; assay type: cell-based; conditions: Escherichia coli, read-out: minimum inhibitory concentration
Excerpt: as §1, §2, §3

Str. mitis = assay: as above; assay type: cell-based; conditions: Streptococcus mitis, Str. mitis (Gram Positive), 1% solution in 95% ethyl alcohol
Excerpt: as §1, §2, §3

A. niger = assay: as above; assay type: cell-based; conditions: Aspergillus niger, A. niger (Mold), 1% solution in 95% ethyl alcohol
Excerpt: as §1, §2, §3

S. aureus = assay: as above; assay type: cell-based; conditions: Staphylococcus aureus, read-out: minimum inhibitory concentration
Excerpt: as §1, §2, §3

Ps. aeruginosa = assay: as above; assay type: cell-based; conditions: Pseudomonas aeruginosa, Ps. aeruginosa (Gram Negative), 1% solution in 95% ethyl alcohol
Excerpt: as §1, §2, §3

C. albicans = assay: as above; assay type: cell-based, Candidia albicans; conditions: Candida albicans, C. albicans (Yeast), 1% solution in 95% ethyl alcohol
Excerpt: as §1, §2, §3

T. mentagrophytes = assay: as above; assay type: cell-based; conditions: Trichophyton mentagrophytes, T. mentagrophytes (Mold), 1% solution in 95% ethyl alcohol
Excerpt: as §1, §2, §3

soil and foliage fungi = conditions: U.S. Pat. No. 2,922,790; soil and foliage fungicides; cited from earlier work
microorganisms = assay: antimicrobial properties of shampoo compositions; conditions: substituted for 4-chlorphenyl 1-oxo-2-pyridyl disulfide in shampoo of Example VII

Compound: [O-][n+]1ccccc1SSCc1ccc(Cl)c(Cl)c1
- MIC (P. ovale): 3.9 µg/mL (≈ 12.3 µM)

Compound: [O-][n+]1ccccc1SSc1cccc[n+]1[O-]
- MIC (E. coli): 62.5 µg/mL (≈ 248 µM)
- MIC (Str. mitis): 31.2 µg/mL (≈ 124 µM)
- MIC (A. niger): 62.5 µg/mL (≈ 248 µM)
- MIC (S. aureus): 7.8 µg/mL (≈ 30.9 µM)
- MIC (Ps. aeruginosa): 250 µg/mL (≈ 991 µM)
- MIC (C. albicans): 31.2 µg/mL (≈ 124 µM)

Compound: [O-][n+]1ccccc1SSCc1ccc(Cl)cc1Cl
- MIC (E. coli): 31.2 µg/mL (≈ 98 µM)
- MIC (Str. mitis): 7.8 µg/mL (≈ 24.5 µM)
- MIC (A. niger): 15.6 µg/mL (≈ 49 µM)
- MIC (S. aureus): < 0.5 µg/mL
- MIC (Ps. aeruginosa): 125 µg/mL (≈ 393 µM)
- MIC (T. mentagrophytes): 3.9 µg/mL (≈ 12.3 µM)
- MIC (C. albicans): 7.8 µg/mL (≈ 24.5 µM)

Compound: pyridine-1-oxide trichloromethyl disulfide
- pesticidal properties (soil and foliage fungi): pesticidal properties desirable in soil and foliage fungicides

Compound: [O-][n+]1ccccc1SSc1ccc(Cl)cc1
- MIC (P. ovale): 3.9 µg/mL (≈ 14.5 µM)

Compound: Decenyl 1-oxo-2-pyridyl disulfide
- antimicrobial properties of the resultant shampoo (microorganisms): substantially similar antimicrobial properties

Compound: CCCCCCCCCCCCSSc1cccc[n+]1[O-] [dodecyl 1-oxo2-pyridyl disulfide, Dodecyl 1-oxo-2-pyridyl disulfide]
- antimicrobial properties of the resultant shampoo (microorganisms): substantially similar antimicrobial properties

Compound: CCCCCCSSc1cccc[n+]1[O-] [hexyl 1-oxo-2-pyridyl disulfide, Hexyl 1-oxo-2-pyridyl disulfide]
- antimicrobial properties of the resultant shampoo (microorganisms): substantially similar antimicrobial properties

Compound: [O-][n+]1ccccc1SSc1ccc(Cl)c(Cl)c1
- MIC (P. ovale): 15.6 µg/mL (≈ 51.3 µM)

Compound: [O-][n+]1ccccc1SSc1ccccc1
- MIC (E. coli; E. coli (Gram Negative), 1% solution in 95% ethyl alcohol, two-fold serial dilution): 31.2 µg/mL (≈ 133 µM)
- MIC (P. ovale): 0.1 µg/mL (≈ 0.425 µM)
- MIC (Str. mitis): 15.6 µg/mL (≈ 66.3 µM)
- MIC (A. niger): 15.6 µg/mL (≈ 66.3 µM)
- MIC (S. aureus; S. aureus (Gram Positive), 1% solution in 95% ethyl alcohol, two-fold serial dilution): 3.9 µg/mL (≈ 16.6 µM)
- MIC (Ps. aeruginosa): 250 µg/mL (≈ 1060 µM)
- MIC (T. mentagrophytes): 15.6 µg/mL (≈ 66.3 µM)
- MIC (C. albicans): > 1000 µg/mL

Compound: COc1ccc(SSc2cccc[n+]2[O-])cc1 [p-methoxyphenyl 1oxo-2-pyridyl disulfide, p-Methoxyphenyl 1-oxo-2-pyridyl disulfide]
- antimicrobial properties of the resultant shampoo (microorganisms): substantially similar antimicrobial properties

Compound: [O-][n+]1ccccc1SSCc1ccc(Cl)cc1
- MIC (P. ovale): 1.9 µg/mL (≈ 6.69 µM)
